Data taken from US20050020565A1, “CCK-1 receptor modulators” (priority 2003, published 2005).

Biological target: T1, CCK-1 receptor (Homo sapiens, UniProt P32238)
T1 construct: expressed in transfected cells; membranes
T1 sequence (P32238 1-428): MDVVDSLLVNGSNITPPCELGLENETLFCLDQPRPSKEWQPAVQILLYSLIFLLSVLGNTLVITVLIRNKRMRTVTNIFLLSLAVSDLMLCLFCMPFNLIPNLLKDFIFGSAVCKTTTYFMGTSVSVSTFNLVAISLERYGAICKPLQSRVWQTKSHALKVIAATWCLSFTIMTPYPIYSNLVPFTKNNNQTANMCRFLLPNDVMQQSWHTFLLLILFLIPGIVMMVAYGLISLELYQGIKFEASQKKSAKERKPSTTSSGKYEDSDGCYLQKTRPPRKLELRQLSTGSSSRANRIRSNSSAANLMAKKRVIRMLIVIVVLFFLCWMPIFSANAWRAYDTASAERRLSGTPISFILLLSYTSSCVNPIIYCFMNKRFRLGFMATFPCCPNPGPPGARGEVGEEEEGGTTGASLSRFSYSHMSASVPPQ
Test: CCK-1 receptor radioligand binding assay ([125I]-BH-CCK-8S displacement, membranes of stably transfected CHO-K1 cells)
Conditions: membranes of CHO-K1 cells stably transfected with CCK-1 receptor, 0.3 μM PD-134,308 present
Description: CHO-K1 cells that had undergone-stable transfection with the CCK-1 receptor were grown in DMEM supplemented with L-glutamine (2 mM), penicillin (50 units/mL) and streptomycin (50 μg/mL). Cells were cultured under continuous G418 selection (2 mM) and were harvested using a rubber cell scraper. CHO-K1 cells were sub-cultured a maximum of ten times before being reseeded from the original stocks.
Membranes were prepared from the stably transfected CHO-K1 cells. Frozen cell pellets (−40° C.) were thawed in 14 mL of buffer A (10 mM HEPES, 130 mM NaCl, 4.7 mM KCl, 5 mM MgCl, 1 mM EGTA and 15.4 mg/100 mL bacitracin at pH 7.2), adapted from Harper et al. (Br. J. Pharmacol. (1996) 118, pp 1717-1726). The thawed pellets were homogenized using a Polytron PT-10 (7×1 s). The homogenates were centrifuged for 5 min at 1500 rpm (600×g), and the resulting pellets were discarded. The supernatants were re-centrifuged in order to collect the receptor-membrane pellets (25 min 15,000 rpm; 39,800×g), which were re-suspended in buffer A.
All assays were conducted in 96-well plates (GF/B millipore filter plates) using buffer A, with 0.3 μM PD-134,308, for the dilutions. The CCK-2 receptor ligand was included to eliminate the contribution of this receptor subtype to the binding. For the optimal cell number determination experiments 20 pM [1251]-BH—CCK-8S (50 μL 60 pM solution) was incubated with a range of cell concentrations (2.5×105 to 12.5×10^5 cells/well) in a total volume of 150 μL. Total binding of [1251]-BH—CCK-8S was determined in the presence of 15 μL of buffer A. Non-specific binding of [1 251]-BH—CCK-8S was determined in the presence of 15 μL of 100 μM 2-naphthalenesulphonyl L-aspartyl-(2-phenethyl)amide (2-NAP: see R. A. Hull et al., Br. J. Pharmacol. (1993) 108, pp 734-740), a CCK-1 receptor selective antagonist that is structurally unrelated to the radioligand [1251]-BH—CCK-8S. The assay preparation was incubated for 1 h at 21±3° C., and then the assay was terminated upon rapid filtration of the preparation under reduced pressure. The loaded filters were washed three times using undiluted PBS (100 μL), and then the residues were transferred to 5 mL scintillation tubes. Bound radioactivity was determined using a gamma counter (count time=1 min). From these experiments a cell concentration of 1 pellet in 40 mL of buffer (2.5×10^6 cells/mL) was chosen for use in other assays (below). To validate the radioligand concentration and incubation time for the assay, saturation and kinetic binding studies were also conducted (see M. F. Morton, The Pharmacological Characterization of Cholecystokinin Receptors in the Human Gastrointestinal Tract. PhD Thesis, University of London, 2000). The affinity of novel compounds was estimated by incubating membrane preparations with 15 μL of competing ligand (0.1 pM-1 mM) for 60 min at 21±3° C. The assay was then terminated according to the procedure outlined above.
The pKi values were determined using the equation of Cheng and Prusoff (Biochem. Pharmacol. (1973) 22, pp 3099-3108): [formula]
To circumvent problems associated with computer-assisted data analysis of compounds with low affinity, the data obtained in the current study were weighted according to a method described by Morton (2000). In brief, 100% and 0% specific binding were defined independently using total binding and binding obtained in the presence of a high concentration of the reference antagonist, 2-NAP.

Row | Structure (SMILES) | Ki [nM]
1 | COc1ccc(-n2nc(/C=C(\C(=O)O)c3cccc(C)c3)cc2-c2ccc(Cl)c(Cl)c2)cc1 [Example 120] | 10
2 | O=C(O)/C(=C/c1cc(-c2ccc3c(c2)OCO3)n(-c2cc(Cl)ccc2Cl)n1)c1cccc(Cl)c1 [Example 123] | 251
3 | COc1ccc(-n2nc(/C=C(/C(=O)O)c3ccc(Cl)c(Cl)c3)cc2-c2ccc(Cl)c(Cl)c2)cc1 [Example 124] | 39.8
4 | COc1ccc(-n2nc(C[C@@H](c3cccc(C)c3)c3nnn[nH]3)cc2-c2ccc(Cl)c(Cl)c2)cc1 [Example 129] | 15.8
5 | COc1ccc(-n2nc(C[C@H](c3cccc(C)c3)c3nnn[nH]3)cc2-c2ccc(Cl)c(Cl)c2)cc1 [Example 131] | 126
6 | COc1ccc(-n2nc(C[C@H](CS(=O)(=O)c3ncn[nH]3)c3cccc(C)c3)cc2-c2ccc(Cl)c(Cl)c2)cc1 [Example 138] | 31.6
7 | COc1ccc(-n2nc(CC(C(=O)O)c3cccc(C)c3)cc2-c2ccc(C)cc2)cc1 (stereo not drawn) [Example 148] | 15.8
8 | COc1ccc(-n2nc(C[C@@H](C(=O)O)c3cccc4ccccc34)cc2-c2ccc(C)cc2)cc1 [Example 151] | 200
9 | COc1ccc(-n2nc(CC(C(=O)O)c3cccc4sccc34)cc2-c2ccc(C)cc2)cc1 (stereo not drawn) [Example 153] | 15.8
10 | Cc1ccc(-c2cc(CC(C(=O)O)c3cccc4ccccc34)nn2-c2ccc(Cl)c(Cl)c2)cc1 (stereo not drawn) [Example 181] | 15.8
11 | Cc1ccc(-c2cc(CC(C(=O)O)c3ccc4c(c3)OCO4)nn2-c2ccc(Cl)c(Cl)c2)cc1 (stereo not drawn) [Example 189] | 39.8
12 | COc1ccc(-n2nc(CC(C(=O)O)c3cccnc3)cc2-c2ccc(Cl)cc2)cc1 (stereo not drawn) [Example 208] | 3160
13 | COc1ccc(-n2nc(CC(C(=O)O)c3cccc4ccccc34)cc2-c2ccc(Cl)c(Cl)c2)cc1 (stereo not drawn) [Example 210] | 12.6
14 | COc1ccc(-n2nc(CC(C(=O)O)c3cccc(OC)c3)cc2-c2ccc(Cl)c(Cl)c2)cc1 (stereo not drawn) [Example 211] | 12.6
15 | COc1ccc(-n2nc(CC(C(=O)O)c3cccc(Cl)c3)cc2-c2ccc3c(c2)OCO3)cc1 (stereo not drawn) [Example 221] | 15.8
16 | COc1ccc(-n2nc(CC(C(=O)O)c3cccc(Cl)c3)cc2-c2ccc(Oc3ccccc3)cc2)cc1 (stereo not drawn) [Example 246] | 39.8

Row | Structure (SMILES) | Ki [nM]
17 | COc1ccc(-n2nc(CC(C(=O)O)c3coc4ccccc34)cc2-c2ccc(Cl)c(Cl)c2)cc1 (stereo not drawn) [Example 261] | 12.6
18 | COc1ccc(-n2nc(CC(C(=O)O)c3coc4ccccc34)cc2-c2ccc3c(c2)OCO3)cc1 (stereo not drawn) [Example 262] | 12.6
19 | Cc1ccc(-n2nc(CC(C(=O)O)c3cccc(C)c3)cc2-c2ccc3ccccc3c2)cc1 (stereo not drawn) [Example 271] | 15.8
20 | Cc1cccc(C(Cc2cc(-c3ccc(Cl)c(Cl)c3)n(-c3ccc(C(C)(C)C)cc3)n2)C(=O)O)c1 (stereo not drawn) [Example 275] | 20
21 | Cc1cccc(C(Cc2cc(-c3ccc(N(C)C)cc3)n(-c3ccc(OC(F)(F)F)cc3)n2)C(=O)O)c1 (stereo not drawn) [Example 287] | 20
22 | Cc1cccc(C(Cc2cc(-c3cccc(Cl)c3)n(C)n2)C(=O)O)c1 (stereo not drawn) [Example 303] | 1260
23 | Cc1cccc(C(Cc2cc(-c3ccc(Oc4ccccc4)cc3)[nH]n2)C(=O)O)c1 (stereo not drawn) [Example 305] | 2000
24 | Cc1cccc(C(Cc2cc(-c3ccc(Br)c(C)c3)n(C3CCCCC3)n2)C(=O)O)c1 (stereo not drawn) [Example 308] | 63.1
25 | COc1cccc2cc(-c3cc(CC(C(=O)O)c4cccc(C)c4)nn3-c3ccc(C)cc3)oc12 (stereo not drawn) [Example 311] | 20
26 | Cc1cccc(C(Cc2cc(-c3ccc4c(c3)OCO4)n(Cc3ccccc3)n2)C(=O)O)c1 (stereo not drawn) [Example 322] | 39.8
27 | Cc1cccc([C@H](Cc2cc(-c3ccc(Cl)c(Cl)c3)n(-c3ccc(O)cc3)n2)C(=O)O)c1 [Example 328] | 20
28 | COc1ccc(-n2nc(CC(C(=O)O)c3cccc(SC(F)(F)F)c3)cc2-c2ccc(Cl)c(Cl)c2)cc1 (stereo not drawn) [Example 334] | 100
29 | Cc1ccc(-c2cc(CC(CSc3ncn[nH]3)c3cccc(C)c3)nn2-c2ccc(C)cc2)cc1 (stereo not drawn) [Example 335] | 31.6
30 | Cc1ccc(-n2nc(CC(C(=O)O)c3cccc(C)c3)cc2-c2ccc(N3CCCCC3)cc2)cc1 (stereo not drawn) [Example 349] | 79.4
31 | Cc1ccc(-n2nc(CC(C(=O)O)c3cccc(C)c3)cc2-c2ccc(N3CCCC3)cc2)cc1 (stereo not drawn) [Example 352] | 31.6
32 | COc1ccc(-n2nc(/C=C(/C(=O)O)c3ccc(C)cc3)cc2-c2ccc(Cl)c(Cl)c2)cc1 [Example 363] | 794

Next, values leading:

Row | Ki [nM] | Structure (SMILES)
33 | 3.98 | O=C(O)/C(=C\c1cc(-c2ccc3ccccc3c2)n(-c2cc(Cl)ccc2Cl)n1)c1cccc(Cl)c1 [Example 112]
34 | 6.31 | COc1ccc(-n2nc(/C=C(\C(=O)O)c3cccc(Cl)c3)cc2-c2ccc(Cl)c(Cl)c2)cc1 [Example 115]
35 | 5.01 | COc1ccc(-n2nc(/C=C(\C(=O)O)c3ccc(Cl)c(Cl)c3)cc2-c2ccc(Cl)c(Cl)c2)cc1 [Example 118]
36 | 7.94 | CCOc1ccc(-n2nc(/C=C(\C(=O)O)c3cccc(Cl)c3)cc2-c2ccc3c(c2)OCO3)cc1 [Example 121]
37 | 1.58 | O=C(O)/C(=C\c1cc(-c2ccc3c(c2)OCO3)n(-c2cc(Cl)ccc2Cl)n1)c1cccc(Cl)c1 [Example 122]
38 | 10 | Clc1cccc(C(Cc2cc(-c3ccc4c(c3)OCO4)n(-c3cc(Cl)ccc3Cl)n2)c2nnn[nH]2)c1 (stereo not drawn) [Example 132]
39 | 6.31 | Cc1ccc(-c2cc(CC(C[S+]([O-])c3ncn[nH]3)c3cccc(C)c3)nn2-c2ccc(C)cc2)cc1 (stereo not drawn) [Example 136]
40 | 10 | Cc1ccc(-c2cc(CC(CS(=O)(=O)c3ncn[nH]3)c3cccc(C)c3)nn2-c2ccc(C)cc2)cc1 (stereo not drawn) [Example 137]
41 | 12.6 | COc1ccc(-n2nc(C[C@H](C(=O)O)c3cccc4ccccc34)cc2-c2ccc(C)cc2)cc1 [Example 152]
42 | 10 | Cc1ccc(-c2cc(CC(C(=O)O)c3cccc(C)c3)nn2-c2ccc(Cl)cc2)cc1 (stereo not drawn) [Example 155]
43 | 12.6 | COc1cccc(C(Cc2cc(-c3ccc(C)cc3)n(-c3ccc(Cl)cc3)n2)C(=O)O)c1 (stereo not drawn) [Example 157]
44 | 12.6 | Cc1ccc(-c2cc(CC(C(=O)O)c3cccc4ccccc34)nn2-c2ccc(C)cc2)cc1 (stereo not drawn) [Example 167]
45 | 7.94 | Cc1ccc(-c2cc(CC(C(=O)O)c3cccc(Cl)c3)nn2-c2ccc(C)cc2)cc1 (stereo not drawn) [Example 168]
46 | 7.94 | COc1cccc(C(Cc2cc(-c3ccc(C)cc3)n(-c3ccc(C)cc3)n2)C(=O)O)c1 (stereo not drawn) [Example 170]
47 | 12.6 | COc1cccc(C(Cc2cc(-c3ccc(C)cc3)n(-c3ccc(C(F)(F)F)cc3)n2)C(=O)O)c1 (stereo not drawn) [Example 177]
48 | 12.6 | Cc1ccc(-c2cc(CC(C(=O)O)c3cccc(Cl)c3)nn2-c2ccc(Cl)c(Cl)c2)cc1 (stereo not drawn) [Example 182]
49 | 10 | Cc1ccc(-c2cc(CC(C(=O)O)c3cccc4sccc34)nn2-c2ccc(Cl)c(Cl)c2)cc1 (stereo not drawn) [Example 190]
50 | 10 | Cc1ccc(-c2cc(CC(C(=O)O)c3cccc4ccccc34)nn2Cc2ccccc2)cc1 (stereo not drawn) [Example 195]
51 | 6.31 | Cc1cccc(C(Cc2cc(-c3ccc4c(c3)OCO4)n(-c3ccc(Cl)cc3Cl)n2)C(=O)O)c1 (stereo not drawn) [Example 276]
